Each structure is given as a SMILES string.

In this test the target is T1, human α7 receptor (Homo sapiens, UniProt P36544).
T1 construct: host or cells: rat GH4C1 cell line
T1 sequence (P36544 23-502): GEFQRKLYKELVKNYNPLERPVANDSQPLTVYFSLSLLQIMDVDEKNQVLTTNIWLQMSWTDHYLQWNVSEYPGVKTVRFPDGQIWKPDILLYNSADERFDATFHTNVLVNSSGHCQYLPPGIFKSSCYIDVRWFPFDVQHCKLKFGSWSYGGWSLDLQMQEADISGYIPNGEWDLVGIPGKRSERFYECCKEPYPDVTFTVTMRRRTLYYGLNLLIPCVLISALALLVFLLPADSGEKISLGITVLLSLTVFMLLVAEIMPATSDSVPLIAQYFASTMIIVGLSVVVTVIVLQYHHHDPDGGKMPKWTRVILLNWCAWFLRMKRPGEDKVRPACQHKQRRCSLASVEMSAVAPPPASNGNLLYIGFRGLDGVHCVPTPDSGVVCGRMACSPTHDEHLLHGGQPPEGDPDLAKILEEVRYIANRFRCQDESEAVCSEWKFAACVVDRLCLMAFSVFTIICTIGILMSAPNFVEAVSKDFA
The test can be described thus: α7 NNR flux assay (FDSS Ca assay, Calcium-4 dye, positive allosteric modulation of acetylcholine response). Format: cell-based. Particulars: human α7 receptor stably expressed in rat GH4C1 cell line; acetylcholine 20 μM (~EC100); % modulation relative to reference PNU-120596 set to 100%. The procedure:
The nicotinic acetylcholine receptor α7 is a calcium-permeable ion channel, whose activity can be measured by over expression in mammalian cells or oocytes in this version of the assay, the human α7 receptor is stably expressed in the rat GH4C1 cell line. The assay was used to identify positive allosteric modulators (PAMs) of the α7 receptor. Activation of the channel was measured by loading cells with the calcium-sensitive fluorescent dye Calcium-4 (Assay kit from Molecular Devices), and then measuring real-time changes in fluorescence upon treatment with test compounds.
The cell line ChanClone GH4C1-nAChRalpha7 from Genionics was seeded from frozen stock in 384-well plates in culture media 2-3 days before experiment to form an approximately 80% confluent layer on the day of experiment.
Two or three days before the experiment the cells were seeded in 384 well plates from Greiner bio-one (781946, CELLCOAT, Poly-D-Lysine, black, μClear).
The cells were seeded in 384 well plates with 30 μL/well (30000 cells/well) while stirring the cell suspension or otherwise preventing the cells from precipitating.
The loading buffer was 5% v/v Calcium-4 Kit and 2.5 mM Probenecid in assay buffer.
Culture media were removed from the cell plates and 20 μL loading buffer was added in each well. The cell plates were placed in trays and incubated 90 minutes in the incubator (37° C.). Thereafter the plates were incubated 30 minutes at room temperature, still protected from light.
The assay buffer was HBSS with 20 mM HEPES, pH 7.4 and 3 mM CaCl2.
200 nL 10 mM compound solution in DMSO was diluted in 50 μL assay buffer. The final test concentrations in the cell plates were 20-10-5-2.5-1:25-0.625-0.312-0.156-0.078-0.039 μM. Assay buffer and 3 μM PNU-120596 were used for control.
The agonist acetylcholine was added to a final concentration of 20 μM (˜EC100).
In the FDSS7000 the Ex480-Em540 was measured with 1 second intervals. The baseline was made of 5 frames before addition of test compounds, and 95 frames more were made before addition of acetylcholine. The measurement stopped 30 frames after the 2nd addition. Raw data for each well were collected as “the maximum fluorescence count” in the interval 100-131 seconds and as “the average fluorescence count” in the interval 96-100 seconds. The positive allosteric modulation in the 2nd addition was the enhancement of agonist response with test compound compared to agonist alone.
Results were calculated as % modulation of test compound compared to the reference PNU-120596 set to 100%.
In the case of `CC(C)Oc1ccc([C@H](C)NC(=O)[C@H]2C[C@@H]2c2ccccc2)cn1` [Compound 1, (1S,2S)-2-Phenyl-cyclopropanecarboxylic acid [(S)-1-(6-isopropoxy-pyridin-3-yl)-ethyl]-amide], the 50% effective concentration (EC50) (commonly the concentration at which the effect is half-maximal) is 0.67 µM.

Take `Cc1ccc([C@H](C)NC(=O)[C@H]2C[C@@H]2c2ccccc2)nc1` [Compound 2, (1S,2S)-2-Phenyl-cyclopropanecarboxylic acid [(S)-1-(5-methyl-pyridin-2-yl)-ethyl]-amide]: the 50% effective concentration (EC50) is 5.6 µM.

Take `COc1ccc([C@H](C)NC(=O)[C@H]2C[C@@H]2c2ccccc2)cn1` [Compound 3, (S, 2S)-2-Phenyl-cyclopropanecarboxylic acid-[(S)-1-(6-methoxy-pyridin-3-yl)-ethyl]-amide]: the EC50 worked out at 5.8 µM.

On to `Cc1ccc([C@H](C)NC(=O)[C@H]2C[C@@H]2c2ccccc2)cn1` [Compound 4, (1S,2S)-2-Phenyl-cyclopropanecarboxylic acid [(S)-1-(6-methyl-pyridin-3-yl)-ethyl]-amide], for which the EC50 was found to be 8.1 µM.

`C[C@H](NC(=O)[C@H]1C[C@@H]1c1ccccc1)c1ccc(C#N)nc1` [Compound 5, (1S,2S)-2-Phenyl-cyclopropanecarboxylic acid [(S)-1-(6-cyano-pyridin-3-yl)-ethyl]-amide]: the 50% effective concentration (EC50) worked out at 7.7 µM.

Regarding `C[C@H](NC(=O)[C@H]1C[C@@H]1c1ccccc1)c1ccc(C(F)(F)F)nc1` [Compound 6, (1S,2S)-2-Phenyl-cyclopropanecarboxylic acid [(S)-1-(6-trifluoromethyl-pyridin-3-yl)-ethyl]-amide], the EC50 was found to be 5.2 µM.

Take `CCOc1ccc([C@H](C)NC(=O)[C@H]2C[C@@H]2c2ccccc2)cn1` [Compound 7, (1S,2S)-2-Phenyl-cyclopropanecarboxylic acid [(S)-1-(6-ethoxy-pyridin-3-yl)-ethyl]-amide]: the concentration giving a half-maximal response (EC50) was 0.96 µM.

For `CCc1ccc([C@H](C)NC(=O)[C@H]2C[C@@H]2c2ccccc2)cn1` [Compound 8, (1S,2S)-2-Phenyl-cyclopropanecarboxylic acid [(S)-1-(6-ethyl-pyridin-3-yl)-ethyl]-amide], the EC50 amounted to 3.7 µM.

In the case of `COCc1ccc([C@H](C)NC(=O)[C@H]2C[C@@H]2c2ccccc2)cn1` [Compound 9, (1S,2S)-2-Phenyl-cyclopropanecarboxylic acid [(S)-1-(6-methoxymethyl-pyridin-3-yl)-ethyl]-amide], the EC50 was found to be 6.2 µM.

As for `C[C@H](NC(=O)[C@H]1C[C@@H]1c1ccccc1)c1ccc(OCC(F)(F)F)nc1` [Compound 10, (1S,2S)-2-Phenyl-cyclopropanecarboxylic acid {(S)-1-[6-(2,2,2-trifluoro-ethoxy)-pyridin-3-yl]-ethyl}-amide], the EC50 came to 1.9 µM.

`COCCOc1ccc([C@H](C)NC(=O)[C@H]2C[C@@H]2c2ccccc2)cn1` [Compound 11, (1S,2S)-2-Phenyl-cyclopropanecarboxylic acid {(S)-1-[6-(2-methoxy-ethoxy)-pyridin-3-yl]-ethyl}-amide]: the 50% effective concentration (EC50) was 3.8 µM.

In the case of `CCOc1cc([C@H](C)NC(=O)[C@H]2C[C@@H]2c2ccccc2)ccn1` [Compound 12, (1S,2S)-2-Phenyl-cyclopropanecarboxylic acid [(S)-1-(2-ethoxy-pyridin-4-yl)-ethyl]-amide], the half-maximal effective concentration (EC50) stood at 1.2 µM.

With `C[C@H](NC(=O)[C@H]1C[C@@H]1c1ccccc1)c1ccc(O[C@H]2CCOC2)nc1` [Compound 13, (1S,2S)-2-Phenyl-cyclopropanecarboxylic acid [(S)-1-{6-[(S)-(tetrahydro-furan-3-yl)oxy]-pyridin-3-yl]-ethyl}-amide], the concentration giving a half-maximal response (EC50) is 1.6 µM.

Regarding `C[C@H](NC(=O)[C@H]1C[C@@H]1c1ccccc1)c1ccc(O[C@@H]2CCOC2)nc1` [Compound 14, (1S,2S)-2-Phenyl-cyclopropanecarboxylic acid [(S)-1-{6-[(R)-(tetrahydro-furan-3-yl)oxy]-pyridin-3-yl]-ethyl}-amide], the EC50 was determined as 1.6 µM.

For `C[C@H](NC(=O)[C@H]1C[C@@H]1c1ccccc1)c1cnc2c(c1)OCO2` [Compound 15, (1S,2S)-2-Phenyl-cyclopropanecarboxylic acid ((S)-1-[1,3]dioxolo[4,5-b]pyridin-6-yl-ethyl)-amide], the concentration for a half-maximal effect (EC50) was determined as 5.6 µM.

Regarding `C[C@H](NC(=O)[C@H]1C[C@@H]1c1ccccc1)c1cnc2c(c1)OCCO2` [Compound 16, (1S,2S)-2-Phenyl-cyclopropanecarboxylic acid [(S)-1-(2,3-dihydro-[1,4]dioxino[2,3-b]pyridin-7-yl)-ethyl]-amide], the 50% effective concentration (EC50) is 6.8 µM.

With `CCOc1ncc([C@H](C)NC(=O)[C@H]2C[C@@H]2c2ccccc2)cn1` [Compound 17, (1S,2S)-2-Phenyl-cyclopropanecarboxylic acid [(S)-1-(2-ethoxy-pyrimidin-5-yl)-ethyl]-amide], the half-maximal effective concentration (EC50) was 3.7 µM.

In the case of `C[C@H](NC(=O)[C@H]1C[C@@H]1c1ccccc1)c1ccc(Cl)nc1` [Compound 18, (1S,2S)-2-Phenyl-cyclopropanecarboxylic acid [(S)-1-(6-chloro-pyridin-3-yl)-ethyl]-amide], the EC50 is 3.7 µM.

`CCCOc1ccc([C@H](CO)NC(=O)[C@H]2C[C@@H]2c2ccccc2)cn1` [Compound 21, (1S,2S)-2-Phenyl-cyclopropanecarboxylic acid [(R)-2-hydroxy-1-(6-propoxy-pyridin-3-yl)-ethyl]-amide]: the concentration giving a half-maximal response (EC50) worked out at 0.64 µM.

In the case of `O=C(N[C@@H](CO)c1ccc(C(F)(F)F)nc1)[C@H]1C[C@@H]1c1ccccc1` [Compound 22, (1S,2S)-2-Phenyl-cyclopropanecarboxylic acid [(R)-2-hydroxy-1-(6-trifluoromethyl-pyridin-3-yl)-ethyl]-amide], the EC50 was 5.5 µM.

Consider `N#Cc1ccc([C@H](CO)NC(=O)[C@H]2C[C@@H]2c2ccccc2)nc1` [Compound 23, (1S,2S)-2-Phenyl-cyclopropanecarboxylic acid [(R)-1-(5-cyano-pyridin-2-yl)-2-hydroxy-ethyl]-amide], for which the EC50 amounted to 7.6 µM.

On to `COc1ccc([C@H](CO)NC(=O)[C@H]2C[C@@H]2c2ccccc2)cn1` [Compound 24, (1S,2S)-2-Phenyl-cyclopropanecarboxylic acid [(R)-2-hydroxy-1-(6-methoxy-pyridin-3-yl)-ethyl]-amide], for which the half-maximal effective concentration (EC50) came out at 5.2 µM.

`Cc1ccc([C@H](CO)NC(=O)[C@H]2C[C@@H]2c2ccccc2)cn1` [Compound 25, (1S,2S)-2-Phenyl-cyclopropanecarboxylic acid [(R)-2-hydroxy-1-(6-methyl-pyridin-3-yl)-ethyl]-amide]: the concentration giving a half-maximal response (EC50) was found to be 7.3 µM.

As for `CC(C)Oc1ccc([C@H](CO)NC(=O)[C@H]2C[C@@H]2c2ccccc2)cn1` [Compound 26, (1S,2S)-2-Phenyl-cyclopropanecarboxylic acid [(R)-2-hydroxy-1-(6-isopropoxy-pyridin-3-yl)-ethyl]-amide], the EC50 was found to be 0.39 µM.

For `CCOc1ccc([C@H](CO)NC(=O)[C@H]2C[C@@H]2c2cccc(F)c2)cn1` [Compound 27, (1S,2S)-2-(3-Fluoro-phenyl)-cyclopropanecarboxylic acid [(R)-1-(6-ethoxy-pyridin-3-yl)-2-hydroxy-ethyl]-amide], the half-maximal effective concentration (EC50) was 0.39 µM.

For the compound `CCOc1ccc([C@H](CO)NC(=O)[C@H]2C[C@@H]2c2ccc(F)cc2)cn1` [Compound 28, (1S,2S)-2-(4-Fluoro-phenyl)-cyclopropanecarboxylic acid [(R)-1-(6-ethoxy-pyridin-3-yl)-2-hydroxy-ethyl]-amide], the EC50 turned out to be 0.62 µM.

The record behind these values is patent publication US9889122B2, “Positive allosteric modulators of nicotinic acetylcholine receptor” (H. Lundbeck A/S, priority 2011, dated 2018).
